Results reported in patent US4551547A, “Biocidal 2-aryl-1, 3-cyclopentanedione enol ester compounds” (Union Carbide Corporation, priority 1983, dated 1985).
≈ marks a conversion by molar mass, not a printed value.

How the values were obtained:
[1] = system: egg of the two-spotted mite; assay: Mite Ovicide Test (eggs); type: in vivo, Tetranychus urticae (Koch); parameters: key to Miticidal, Egg: A: Excellent Control; B: Partial Control; No Control; conditions: for Miticidal, Egg: Table II, unhatched eggs after four days; for LC50: Tetranychus urticae, Table III, ppm required for a 50 percent kill of eggs, read-out: Miticidal LD50, Egg
Description: Suspensions of the test compounds were prepared by dissolving one gram of compound in 50 milliliters of acetone in which had been dissolved 0.1 gram (10 percent of the weight of compound) of an alkylphenoxyethanol sufactant, as an emulsifying or dispersing agent. The resulting solution was mixed into 160 milliliters of water to give roughly 200 milliliters of a suspension containing the compound in finely divided form. The thus prepared stock suspension contained 0.5 percent by weight of compound. The test concentrations employed in the tests described below were obtained by diluting the stock suspension with water. The test procedures were as follows: The test organism was the egg of the two-spotted mite (Tetranychus urticae (Koch)), as obtained from adults reared on […] bean plants under controlled conditions of 80±5° F. and 50±5 percent relative humidity. Heavily infested leaves from a stock culture were placed on the primary leaves of two bean plants six to eight inches in height growing in a two-and-a-half inch clay pot. Females were allowed to oviposit for a period of 48 hours and the leaves of the infested plants were dipped in a solution containing 800 parts of tetraethyl pyrophosphate per million parts of water in order to destroy the reproductory forms and thus prevent further egg laying. […] The plants were allowed to dry thoroughly. The test compounds were formulated by diluting the stock suspension with water to give a suspension containing varying amounts of test compound per million parts of final formulation. The potted plants (one pot per compound) were placed on a revolving turntable and sprayed with 100-110 milliliters of test compound formulation by use of a DeVilbis spray gun set at 40 spig. air pressure. This application which lasted 30 seconds, was sufficient to wet the plants to run-off. As a control, 100-110 milliliters of a water solution containing acetone and emulsifier in the same concentrations as the test compound formulation, but containing no test compound, were also sprayed on plants infested with eggs. The sprayed plants were held at 80±5° F. and 50±5 percent relative humidity for four days, after which a microscopic examination was made of unhatched (dead) and hatched (living) eggs. In these tests the pesticidal activity of the compounds against mites and mite eggs was rated as follows: Tests were conducted in accordance with the procedures given at pages 17 to 21 supra. The results are expressed in the same manner as used in Table II, except with respect to miticidal activity. For mite adult and mite egg comparison purposes, results are given in parts per million (ppm) required for a 50 percent kill of mites or eggs, respectively.

[2] = system: Bean; assay: Post-emergent herbicidal test, bean; type: in vivo; parameters: key: 1: no perceptible injury; 2: intermediate degrees of injury; 3: intermediate degrees of injury; 4: intermediate degrees of injury; 5: the plant was dead; conditions: 2500 parts per million, after ten days; for Post-emergent Herbicidal, Bean: Table II; for Post Emergent Herbicidal, Bean: Table III
Description: (§1) Suspensions of the test compounds were prepared by dissolving one gram of compound in 50 milliliters of acetone in which had been dissolved 0.1 gram (10 percent of the weight of compound) of an alkylphenoxyethanol sufactant, as an emulsifying or dispersing agent. The resulting solution was mixed into 160 milliliters of water to give roughly 200 milliliters of a suspension containing the compound in finely divided form. The thus prepared stock suspension contained 0.5 percent by weight of compound. The test concentrations employed in the tests described below were obtained by diluting the stock suspension with water. The test procedures were as follows:
(§2) Experiments were also conducted to determine the phytotoxicity of representative compositions with respect to healthy fresh plants. Solutions of the compounds were prepared as described above to provide a concentration of 2500 parts per million of the test compound. The test plants were sprayed in accordance with the procedure described above for the Mite Foliage Spray Test so as to deliver approximately 100 milliliters of test solutions to the leaves of each plant tested. The sprayed plants and controls were set aside for approximately one hour to allow the solutions to dry and were then placed in the greenhouse. After ten days the plants were visually inspected to determine the extent of foliage injury. A rating of 1 indicates no perceptible injury; 5 indicates the plant was dead and ratings of 2, 3 and 4 indicate intermediate degrees of injury based upon the number and extent to which leaves were injured.

[3] = system: Red root pigweed (Amaranthus); assay: Preliminary herbicide seed germination test (pre-emergent), red root pigweed; type: in vivo, Amaranthus retroflexus; parameters: key: 5: no seedling emerged; 4: few seedlings emerged and/or very severe stunting; 3: moderate reduction in stand and/or moderate stunting.; 2: very slight reduction in stand and/or slight stunting; 1: no injury, seedlings appear no different with respect to stand or growth than untreated controls; conditions: ten to twelve days after application
Description: as §1
(§3) The following seeds were used in this test:
Red root pigweed--Amaranthus retroflexus
(§4) Two […] mixtures were prepared as follows:
(§5) Each of the above mixtures was rolled separately in 5 gallon containers for approximately one-half hour on ball mill to insure uniform mixing of seeds and soil. For each compound four 3-inch pots were filled with soil to within 11/2 inches of top of pots. To two of these pots were added 70 cc. of Mixture I. To the remaining 2 pots were added 70 cc. of Mixture II. The seed-soil mixture was tamped firmly, and the pots were removed to the greenhouse and watered lightly. About 2 hours after planting, 25 milliliters of the test formulation were added to one pot containing Mixture I and one pot containing Mixture II. An equal volume of a water solution containing acetone and an emulsifier in the same concentration as the herbicidal mixture but without the candidate herbicide was also added to each of the soil-seed mixtures. These pots are used as check or control units. The test compounds were formulated by diluting the stock suspension with water to obtain the desired concentration of the compound in parts per million of the final formulation. Each compound was tested at the same concentration. […] Ratings were made according to the following designations: […]

[4] = system: Mustard; assay: Preliminary herbicide seed germination test (pre-emergent), mustard; type: in vivo, Brassica pincea var. foliosa (Florida broadleaf); parameters: key: 5: no seedling emerged; 4: few seedlings emerged and/or very severe stunting; 3: moderate reduction in stand and/or moderate stunting.; 2: very slight reduction in stand and/or slight stunting; 1: no injury, seedlings appear no different with respect to stand or growth than untreated controls; conditions: ten to twelve days after application
Description: as §1, §3
Mustard--Brassica pincea var. foliosa (Florida broadleaf)
as §4, §5

[5] = system: Crabgrass; assay: Preliminary herbicide seed germination test (pre-emergent), crabgrass; type: in vivo, Digitaria sanguinalis; parameters: key: 5: no seedling emerged; 4: few seedlings emerged and/or very severe stunting; 3: moderate reduction in stand and/or moderate stunting.; 2: very slight reduction in stand and/or slight stunting; 1: no injury, seedlings appear no different with respect to stand or growth than untreated controls; conditions: ten to twelve days after application
Description: as §1, §3
Crabgrass--Digitaria sanguinalis
as §4, §5

[6] = system: Tomato; assay: Post-emergent herbicidal test, tomato; type: in vivo; parameters: key: 1: no perceptible injury; 2: intermediate degrees of injury; 3: intermediate degrees of injury; 4: intermediate degrees of injury; 5: the plant was dead; conditions: 2500 parts per million, after ten days; for Post-emergent Herbicidal, Tomato: Table II; for Post Emergent Herbicidal, Tomato: Table III
Description: as §1, §2

[7] = system: Soybean; assay: Post-emergent herbicidal test, soybean; type: in vivo; parameters: key: 1: no perceptible injury; 2: intermediate degrees of injury; 3: intermediate degrees of injury; 4: intermediate degrees of injury; 5: the plant was dead; conditions: 2500 parts per million, after ten days; for Post-emergent Herbicidal, Soybean: Table II; for Post Emergent Herbicidal, Soybean: Table III
Description: as §1, §2

[8] = system: Corn; assay: Post-emergent herbicidal test, corn; type: in vivo; parameters: key: 1: no perceptible injury; 2: intermediate degrees of injury; 3: intermediate degrees of injury; 4: intermediate degrees of injury; 5: the plant was dead; conditions: 2500 parts per million, after ten days; for Post-emergent Herbicidal, Corn: Table II; for Post Emergent Herbicidal, Corn: Table III
Description: as §1, §2

Compound: CCCCCCCCCC(=O)OC1=C(c2cc(C)ccc2C)C(=O)C2CCCCC12 (centres unmarked) [Compound 32]
- Miticidal, Egg [1]: A
- Post-emergent Herbicidal, Bean [2]: 1
- Pre-emergent Herbicidal, Amaranthus ([3]; Table II): 1
- Pre-emergent Herbicidal, Mustard ([4]; Table II): 1
- Pre-emergent Herbicidal, Crabgrass ([5]; Table II): 1
- Post-emergent Herbicidal, Tomato [6]: 1
- Post-emergent Herbicidal, Soybean [7]: 1
- Post-emergent Herbicidal, Corn [8]: 2

Compound: CC(=O)OC1=C(c2cc(C)ccc2C)C(=O)C2CCCCC12 (centres unmarked) [Compound 28]
- Miticidal, Egg [1]: A
- Post-emergent Herbicidal, Bean [2]: 2
- Pre-emergent Herbicidal, Amaranthus ([3]; Table II): 1
- Pre-emergent Herbicidal, Mustard ([4]; Table II): 1
- Pre-emergent Herbicidal, Crabgrass ([5]; Table II): 2
- Post-emergent Herbicidal, Tomato [6]: 1
- Post-emergent Herbicidal, Soybean [7]: 2
- Post-emergent Herbicidal, Corn [8]: 3

Compound: CCCCCCCCCCCCCCCC(=O)OC1=C(c2ccccc2C)C(=O)c2ccccc21 [reference compound]
- LC50 [1]: 60 µg/mL (≈ 126 µM)
- Post Emergent Herbicidal, Bean [2]: 1
- Pre-emergent Herbicidal, Amaranthus ([3]; Table III): 1
- Pre-emergent Herbicidal, Mustard ([4]; Table III): 1
- Pre-emergent Herbicidal, Crabgrass ([5]; Table III): 1
- Post Emergent Herbicidal, Tomato [6]: 1
- Post Emergent Herbicidal, Soybean [7]: 0
- Post Emergent Herbicidal, Corn [8]: 1

Compound: CCCCCCCCCC(=O)OC1=C(c2cc(C)ccc2C)C(=O)c2ccccc21 [reference compound]
- LC50 [1]: 500 µg/mL (≈ 1240 µM)
- Post Emergent Herbicidal, Bean [2]: 1
- Pre-emergent Herbicidal, Amaranthus ([3]; Table III): 1
- Pre-emergent Herbicidal, Mustard ([4]; Table III): 1
- Pre-emergent Herbicidal, Crabgrass ([5]; Table III): 1
- Post Emergent Herbicidal, Tomato [6]: 1
- Post Emergent Herbicidal, Soybean [7]: 0
- Post Emergent Herbicidal, Corn [8]: 1

Compound: Cc1ccc(C)c(C2=C(OC(=O)C(C)C)CC(C)C2=O)c1 (centres unmarked) [Compound 16]
- Miticidal, Egg [1]: B
- Post-emergent Herbicidal, Bean [2]: 3
- Pre-emergent Herbicidal, Amaranthus ([3]; Table II): 3
- Pre-emergent Herbicidal, Mustard ([4]; Table II): 2
- Pre-emergent Herbicidal, Crabgrass ([5]; Table II): 1
- Post-emergent Herbicidal, Tomato [6]: 2
- Post-emergent Herbicidal, Soybean [7]: 2
- Post-emergent Herbicidal, Corn [8]: 3

Compound: CCCCC(CC)C(=O)OC1=C(c2ccccc2C)C(=O)C2CCCCC12 (centres unmarked) [drawing 22]
- LC50 [1]: 5 µg/mL (≈ 13.6 µM)
- Post Emergent Herbicidal, Bean [2]: 1
- Pre-emergent Herbicidal, Amaranthus ([3]; Table III): 2
- Pre-emergent Herbicidal, Mustard ([4]; Table III): 1
- Pre-emergent Herbicidal, Crabgrass ([5]; Table III): 2
- Post Emergent Herbicidal, Tomato [6]: 1
- Post Emergent Herbicidal, Soybean [7]: 2
- Post Emergent Herbicidal, Corn [8]: 5

Compound: Cc1ccc(C)c(C2=C(OC(=O)C(C)C)C3CCCCC3C2=O)c1 (centres unmarked) [Compound 29]
- Miticidal, Egg [1]: A
- Post-emergent Herbicidal, Bean [2]: 1
- Pre-emergent Herbicidal, Amaranthus ([3]; Table II): 1
- Pre-emergent Herbicidal, Mustard ([4]; Table II): 1
- Pre-emergent Herbicidal, Crabgrass ([5]; Table II): 1
- Post-emergent Herbicidal, Tomato [6]: 1
- Post-emergent Herbicidal, Soybean [7]: 2
- Post-emergent Herbicidal, Corn [8]: 2
